Laboratory results from patent publication US10206937B2, “Boronic acid derivatives and therapeutic uses thereof” (Qpex Biopharma, Inc., priority 2014, dated 2019).

Columns and labels:
[1] = test system: EC1064 (NDM-1, CMY-6, CTX-M-15); experiment: Carbapenem potentiation against clinical isolate (MIC); assay type: cell-based, Escherichia coli; conditions: antibiotic alone
[2] = test system: KP1081 (NDM-1, TEM-1, SHV-11, CMY-6, CTX-M-15); experiment: as above; assay type: cell-based; conditions: antibiotic alone
AB1144 (NDM-1) = experiment: as above; assay type: cell-based, Acinetobacter baumannii; conditions: AB1144; antibiotic alone
EA1019 (SHV-5, VIM-1) = experiment: as above; assay type: cell-based, Enterobacter aerogenes; conditions: EA1019; antibiotic alone
KP1014 (VIM-1) = experiment: as above; assay type: cell-based, Klebsiella pneumoniae; conditions: antibiotic alone
KP1054 (VIM-1, SHV-11) = experiment: as above; assay type: cell-based, Klebsiella pneumoniae; conditions: antibiotic alone
[3] = test system: KP1064 (KPC-2, SHV-11, TEM-1); experiment: as above; assay type: cell-based, Klebsiella pneumoniae; conditions: antibiotic alone
[4] = test system: KP1074 (KPC-3, SHV-11, TEM); experiment: as above; assay type: cell-based, Klebsiella pneumoniae; conditions: antibiotic alone
[5] = test system: KP1084 (KPC-3, SHV-11, TEM-1); experiment: as above; assay type: cell-based, Klebsiella pneumoniae; conditions: antibiotic alone
[6] = test system: KP1004 (KPC-2, TEM-1, SHV-11); experiment: as above; assay type: cell-based, Klebsiella pneumoniae; conditions: antibiotic alone
[7] = test system: KP1087 (KPC-2, CTX-M-15, SHV-11, TEM-1); experiment: as above; assay type: cell-based; conditions: antibiotic alone
[8] = test system: KP1086 (TEM, SHV, CTX-M-15, OXA-48); experiment: as above; assay type: cell-based, Klebsiella pneumoniae; conditions: antibiotic alone
[9] = test system: strains of Enterobacteriaceae overexpressing various carbapenemases (class A and B); experiment: microbe, parasite or virus in culture; assay type: cell-based; conditions: carbapenem alone or + Compound 14 at fixed 4 μg/ml, read-out: MIC
From the text: Several strains simultaneously expressing both class A and class B carbapenemases, which were constructed using conjugation, were also included in the panel.

NDM-1 [10] = target: T1, NDM-1 (Klebsiella pneumoniae, UniProt C7C422); experiment: biochemical
VIM-1 = target: T2, VIM-1 (Pseudomonas aeruginosa, UniProt A0A0F7KYQ8); experiment: biochemical; conditions: cleavage of nitrocefin (200 uM) by VIM-1 supernatant
T2 construct: made in house; host or cells: ECM6711 strain carrying pUCP24-VIM-1 plasmid; culture supernatant used unpurified

NDM-1 [11] = target: T1, NDM-1; experiment: Inhibition of purified class B carbapenemase NDM-1 (Ki, imipenem substrate); assay type: biochemical
[12] = target: T3, purified class A, C and D enzymes (UniProt Q9F663); assay type: biochemical; conditions: read-out: Ki (KPC-2, NCF); purified KPC-2; nitrocefin reporter substrate
T3 construct: rows headed: Ki (KPC-2, NCF); other: purified KPC-2; nitrocefin reporter substrate

ECM6703 (pUCP24-NDM-1) = assay type: cell-based, E. coli; conditions: NDM-1 producing strain; Compound 1 at fixed 4 μg/ml or 8 μg/ml
ECM6711 (pUCP24-VIM-1) = assay type: cell-based, E. coli; conditions: VIM-1 producing strain; Compound 1 at fixed 4 μg/ml or 8 μg/ml
[13] = test system: clinical isolates expressing class A, B and D carbapenemases; experiment: Carbapenem potentiation by Compound 1, whole panel of clinical isolates (MIC); assay type: cell-based; conditions: Compound 1 at fixed 5 μg/ml in the growth media; all the strains
From the text: The results are present in Table 8.

T1 sequence (C7C422 29-270, looked up, species assumed): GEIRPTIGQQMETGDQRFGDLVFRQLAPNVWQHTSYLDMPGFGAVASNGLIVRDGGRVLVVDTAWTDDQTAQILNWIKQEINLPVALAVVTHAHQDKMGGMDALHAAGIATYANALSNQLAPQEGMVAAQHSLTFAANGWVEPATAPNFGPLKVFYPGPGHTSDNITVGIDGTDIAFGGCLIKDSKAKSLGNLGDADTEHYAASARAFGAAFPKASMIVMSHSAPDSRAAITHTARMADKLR

**Q.** C[C@@H](O)[C@H]1C(=O)N2C(C(=O)O)=C(S[C@@H]3CN[C@H](C(=O)N(C)C)C3)[C@H](C)[C@H]12 [Meropenem, reference compound] was tested. Which “Carbapenem MIC Alone” value [1] did it give?
**A.** Z (MIC of greater than 10 μg/mL)

**Q.** And the “Carbapenem MIC Alone” value [2]?
**A.** Z (MIC of greater than 10 μg/mL)

**Q.** And the “Carbapenem MIC Alone” value (AB1144 (NDM-1))?
**A.** Z (MIC of greater than 10 μg/mL)

**Q.** What about the “Carbapenem MIC Alone” value (EA1019 (SHV-5, VIM-1)) of the same molecule?
**A.** Z (MIC of greater than 10 μg/mL)

**Q.** And the “Carbapenem MIC Alone” value (KP1014 (VIM-1))?
**A.** Y (MIC of 1 μg/mL to 10 μg/mL)

**Q.** What about the “Carbapenem MIC Alone” value (KP1054 (VIM-1, SHV-11)) of the same molecule?
**A.** Z (MIC of greater than 10 μg/mL)

**Q.** What about the “Carbapenem MIC Alone” value [3] of the same molecule?
**A.** Z (MIC of greater than 10 μg/mL)

**Q.** What about the “Carbapenem MIC Alone” value [4] of the same molecule?
**A.** Z (MIC of greater than 10 μg/mL)

**Q.** And the “Carbapenem MIC Alone” value [5]?
**A.** Z (MIC of greater than 10 μg/mL)

**Q.** And the “Carbapenem MIC Alone” value [6]?
**A.** Y (MIC of 1 μg/mL to 10 μg/mL)

**Q.** What about the “Carbapenem MIC Alone” value [7] of the same molecule?
**A.** Z (MIC of greater than 10 μg/mL)

**Q.** And the “Carbapenem MIC Alone” value [8]?
**A.** Z (MIC of greater than 10 μg/mL)

**Q.** What about the MIC ([9]; Enterobacter cloacae, strain ECL1026, Enterobacter cloacae (KPC)) of the same molecule?
**A.** 1 to 10 µg/mL

**Q.** And the MIC ([9]; Enterobacter cloacae, strain ECL1036, Enterobacter cloacae (KPC))?
**A.** 1 to 10 µg/mL

**Q.** And the MIC ([9]; Enterobacter cloacae, strain ECL1045, Enterobacter cloacae (VIM-1))?
**A.** 1 to 10 µg/mL

**Q.** And the MIC ([9]; Enterobacter cloacae, strain ECL1055, Enterobacter cloacae (KPC))?
**A.** 1 to 10 µg/mL

**Q.** What about the MIC ([9]; Enterobacter cloacae, strain ECL1057, Enterobacter cloacae (NDM-1, TEM-1, CTX-M-15)) of the same molecule?
**A.** > 10 µg/mL

**Q.** What about the MIC ([9]; Enterobacter cloacae, strain ECL1082, Enterobacter cloacae (VIM-1)) of the same molecule?
**A.** 1 to 10 µg/mL

**Q.** And the MIC ([9]; Enterobacter cloacae, strain ECLM1013, Enterobacter cloacae (NDM, KPC))?
**A.** > 10 µg/mL

**Q.** What about the MIC ([9]; Enterobacter cloacae, strain ECLM1014, Enterobacter cloacae (NDM, KPC)) of the same molecule?
**A.** > 10 µg/mL

**Q.** And the MIC ([9]; Enterobacter cloacae, strain ECLM1015, Enterobacter cloacae (NDM, KPC))?
**A.** > 10 µg/mL

**Q.** What about the MIC ([9]; Enterobacter cloacae, strain ECLM1016, Enterobacter cloacae (NDM, KPC)) of the same molecule?
**A.** > 10 µg/mL

**Q.** And the MIC ([9]; Enterobacter cloacae, strain ECLM1017, Enterobacter cloacae (VIM, KPC))?
**A.** > 10 µg/mL

**Q.** And the MIC ([9]; Enterobacter cloacae, strain ECLM1018, Enterobacter cloacae (VIM, KPC))?
**A.** > 10 µg/mL

**Q.** What about the MIC ([9]; Enterobacter cloacae, strain ECLM1019, Enterobacter cloacae (VIM, KPC)) of the same molecule?
**A.** > 10 µg/mL

**Q.** What about the MIC ([9]; Escherichia coli, strain EC1064, Escherichia coli (NDM-1, CMY-6, CTX-M-15)) of the same molecule?
**A.** > 10 µg/mL

**Q.** What about the MIC ([9]; Escherichia coli, strain EC1068, Escherichia coli (VIM-1)) of the same molecule?
**A.** > 10 µg/mL

**Q.** And the MIC ([9]; Klebsiella aerogenes, strain EA1019, Enterobacter aerogenes (SHV-5, VIM-1))?
**A.** > 10 µg/mL

**Q.** What about the MIC ([9]; Klebsiella pneumoniae, strain KP1004, Klebsiella pneumoniae (KPC TEM SHV)) of the same molecule?
**A.** > 10 µg/mL

**Q.** And the MIC ([9]; Klebsiella pneumoniae, strain KP1014, Klebsiella pneumoniae (Vim-1, TEM, SHV))?
**A.** > 10 µg/mL

**Q.** And the MIC ([9]; Klebsiella pneumoniae, strain KP1061, Klebsiella pneumoniae (KPC TEM SHV))?
**A.** 1 to 10 µg/mL

**Q.** What about the MIC ([9]; Klebsiella pneumoniae, strain KP1064, Klebsiella pneumoniae (KPC TEM SHV)) of the same molecule?
**A.** > 10 µg/mL

**Q.** What about the MIC ([9]; Klebsiella pneumoniae, strain KP1070, Klebsiella pneumoniae (KPC TEM SHV)) of the same molecule?
**A.** > 10 µg/mL

**Q.** And the MIC ([9]; Klebsiella pneumoniae, strain KP1084, Klebsiella pneumoniae (KPC-3, SHV-11, TEM-1))?
**A.** > 10 µg/mL

**Q.** And the MIC ([9]; Klebsiella pneumoniae, strain KP1097, Klebsiella pneumoniae (IMP-1 SHV))?
**A.** > 10 µg/mL

**Q.** And the MIC ([9]; Klebsiella pneumoniae, strain KP1098, Klebsiella pneumoniae (IMP-26 TEM SHV))?
**A.** > 10 µg/mL

**Q.** What about the MIC ([9]; Klebsiella pneumoniae, strain KPM1097, Klebsiella pneumoniae (NDM, KPC)) of the same molecule?
**A.** > 10 µg/mL

**Q.** And the MIC ([9]; Klebsiella pneumoniae, strain KPM1099, Klebsiella pneumoniae (NDM, KPC))?
**A.** > 10 µg/mL

**Q.** What about the MIC ([9]; Klebsiella pneumoniae, strain KPM1107, Klebsiella pneumoniae (NDM, KPC)) of the same molecule?
**A.** > 10 µg/mL

**Q.** And the MIC ([9]; Klebsiella pneumoniae, strain KPM1108, Klebsiella pneumoniae (NDM, KPC))?
**A.** > 10 µg/mL

**Q.** What about the MIC ([9]; Klebsiella pneumoniae, strain KPM1123, Klebsiella pneumoniae (KPC-2 TEM SHV)) of the same molecule?
**A.** > 10 µg/mL

**Q.** And the MIC ([9]; Klebsiella pneumoniae, strain KPM1344, Klebsiella pneumoniae (VIM-1))?
**A.** > 10 µg/mL

**Q.** What about the MIC ([9]; Klebsiella pneumoniae, strain KPM1346, Klebsiella pneumoniae (NDM-1 TEM SHV CTX-M-15 CMY)) of the same molecule?
**A.** > 10 µg/mL

**Q.** And the MIC ([9]; Klebsiella pneumoniae, strain KPM1347, Klebsiella pneumoniae (NDM-1 SHV CTX-M-15))?
**A.** > 10 µg/mL

**Q.** What about the MIC ([9]; strain EC1065, Escherichai coli (IMP-1 CMY-2)) of the same molecule?
**A.** 1 to 10 µg/mL

**Q.** Which results are given for O=C(O)c1cccc2c1OB(O)[C@@H](Sc1nncs1)C2 [Compound 1, (R)-3-(1,3,4-thiadiazol-2-ylthio)-2-hydroxy-3,4-dihydro-2H-benzo[e][1,2]oxaborinine-8-carboxylic acid]?
**A.** Ki (NDM-1 [10]; Ki, Imipenem): 0.01 to 0.1 µM; Ki (NDM-1 [10]; cleavage of biapenem (100 uM) by NDM-1, read-out: Ki, Biapenem): 0.01 to 0.1 µM; Ki (NDM-1 [10]; cleavage of meropenem (100 uM) by NDM-1, read-out: Ki, Meropenem): 0.01 to 0.1 µM; Ki (NDM-1 [10]; cleavage of tebipenem (100 uM) by NDM-1, read-out: Ki, Tebipenem): > 0.1 µM; IC50 (VIM-1): < 1 µM; Ki (NDM-1 [11]): 0.01 to 0.1 µM; Ki [12]: 0.1 to 1 µM; imipenem MIC in the presence of Compound 1 (ECM6703 (pUCP24-NDM-1)): decreased to the level of the strain containing empty vector; imipenem MIC in the presence of Compound 1 (ECM6711 (pUCP24-VIM-1)): decreased to the level of the strain containing empty vector; carbapenem MIC (biapenem, doripenem, imipenem, meropenem) [13]: significantly reduced
